What was measured:
PI3K = PI3K (Homo sapiens, UniProt P42336); assay: Fluorescence polarization assay for PI3K; assay type: biochemical; details: PI3Kα; read-out: PI3Kα IC50;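 also: PI3K kinase reaction on PIP2 with ATP, 30-60 min, product sensed by GST-GRP with red probe in fluorescence polarization (mP), controls without enzyme and at zero time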
prostate line LNCap = assay: In vitro cell culture growth assay (MTS), LNCap; assay type: cell-based, human; details: LNCap cells, three days after drug treatment;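 also: viable cell density read by absorbance at 490 nm, growth expressed as percent of vehicle-treated cells on the same plate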
breast line MDA468 = assay: In vitro cell culture growth assay (MTS), MDA468; assay type: cell-based, human; details: MDA468 cells, three days after drug treatment
How it was run: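 Three-day drug treatment starting 1 day post-plating; viable cells quantified via MTS metabolism (A490); effect normalised to in-plate vehicle controls as % growth.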

PI3K, sequence (P42336 whole entry): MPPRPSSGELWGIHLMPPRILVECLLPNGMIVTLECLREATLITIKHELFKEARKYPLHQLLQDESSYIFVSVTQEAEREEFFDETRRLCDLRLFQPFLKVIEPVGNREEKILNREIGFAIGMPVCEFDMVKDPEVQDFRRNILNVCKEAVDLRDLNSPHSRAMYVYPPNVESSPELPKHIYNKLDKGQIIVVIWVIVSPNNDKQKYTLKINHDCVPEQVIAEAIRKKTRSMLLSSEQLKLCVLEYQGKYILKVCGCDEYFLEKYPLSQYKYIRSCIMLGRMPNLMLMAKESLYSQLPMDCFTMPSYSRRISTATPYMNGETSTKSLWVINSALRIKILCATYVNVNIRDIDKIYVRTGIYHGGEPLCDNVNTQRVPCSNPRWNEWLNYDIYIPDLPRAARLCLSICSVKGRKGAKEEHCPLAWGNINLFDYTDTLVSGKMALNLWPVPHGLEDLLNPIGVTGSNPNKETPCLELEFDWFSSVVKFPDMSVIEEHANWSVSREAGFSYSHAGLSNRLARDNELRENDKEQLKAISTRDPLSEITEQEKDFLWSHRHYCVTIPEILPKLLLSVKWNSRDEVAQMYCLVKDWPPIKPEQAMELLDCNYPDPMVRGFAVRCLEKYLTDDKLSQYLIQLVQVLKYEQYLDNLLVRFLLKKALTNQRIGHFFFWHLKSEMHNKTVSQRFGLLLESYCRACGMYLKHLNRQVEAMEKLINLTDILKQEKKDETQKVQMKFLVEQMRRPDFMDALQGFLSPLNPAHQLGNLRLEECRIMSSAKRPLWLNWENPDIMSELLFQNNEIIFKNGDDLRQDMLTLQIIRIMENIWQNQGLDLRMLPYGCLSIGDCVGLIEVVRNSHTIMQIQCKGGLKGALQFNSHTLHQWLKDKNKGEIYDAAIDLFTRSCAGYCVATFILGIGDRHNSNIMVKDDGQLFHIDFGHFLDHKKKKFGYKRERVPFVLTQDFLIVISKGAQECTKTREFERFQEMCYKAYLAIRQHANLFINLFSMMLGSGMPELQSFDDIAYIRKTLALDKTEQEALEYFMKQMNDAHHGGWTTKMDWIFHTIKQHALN
PI3K, sequence (P27986 whole entry partner): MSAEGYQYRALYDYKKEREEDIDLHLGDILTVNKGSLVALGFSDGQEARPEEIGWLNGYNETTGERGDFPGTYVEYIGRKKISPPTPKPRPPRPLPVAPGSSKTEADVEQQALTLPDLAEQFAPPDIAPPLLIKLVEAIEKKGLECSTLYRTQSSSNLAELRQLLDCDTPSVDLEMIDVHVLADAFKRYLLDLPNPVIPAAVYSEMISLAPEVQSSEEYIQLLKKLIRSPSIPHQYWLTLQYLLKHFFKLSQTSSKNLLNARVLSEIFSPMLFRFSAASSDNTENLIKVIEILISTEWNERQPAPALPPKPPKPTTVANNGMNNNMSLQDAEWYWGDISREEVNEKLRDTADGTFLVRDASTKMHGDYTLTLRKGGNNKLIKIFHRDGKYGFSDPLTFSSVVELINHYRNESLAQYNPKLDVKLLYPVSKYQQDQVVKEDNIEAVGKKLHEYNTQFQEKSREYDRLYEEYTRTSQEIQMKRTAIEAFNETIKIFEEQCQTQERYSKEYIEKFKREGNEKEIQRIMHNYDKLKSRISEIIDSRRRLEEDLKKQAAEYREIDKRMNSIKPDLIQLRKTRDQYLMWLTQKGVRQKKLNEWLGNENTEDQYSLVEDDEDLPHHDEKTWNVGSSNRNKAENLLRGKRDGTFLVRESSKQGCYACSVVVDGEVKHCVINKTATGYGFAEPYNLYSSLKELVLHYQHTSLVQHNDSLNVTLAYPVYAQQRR

SMILES | IC50 (PI3K) [nM] | IC50 (prostate line LNCap; Homo sapiens, LNCaP, 72 h) [nM] | IC50 (breast line MDA468; Homo sapiens, 72 h) [nM] | IC50 (prostate line LNCap) [nM] | IC50 (breast line MDA468) [nM]
CC(=O)Nc1ccc(-c2nc(N3CCOCC3)c3cnn(C4CCN(Cc5ccccc5)CC4)c3n2)cc1[N+](=O)[O-] [Compound 184, N-{4-[1-(1-benzylpiperidin-4-yl)-4-morpholin-4-yl-1H-pyrazolo[3,4-d]pyrimidin-6-yl]-2-nitrophenyl}acetamide] | 3080 | 60000 | 60000 |  | 
CCCNC(=O)Nc1ccc(-c2nc(N3CCOCC3)c3cnn(C4CCN(Cc5ccccc5)CC4)c3n2)cc1 [Example 254, 1-{4-[1-(1-benzylpiperidin-4-yl)-4-morpholin-4-yl-1H-pyrazolo[3,4-d]pyrimidin-6-yl]phenyl}-3-propylurea] | 341 | 220 | 1500 |  | 
CC(C)C(=O)Nc1ccc(-c2nc(N3CCOCC3)c3cnn(C4CCN(Cc5ccccc5)CC4)c3n2)cc1 [Compound 186] | 3420 | 4000 | 3900 |  | 
O=C(NCCF)Nc1ccc(-c2nc(N3CCOCC3)c3cnn(C4CCN(CC(F)(F)F)CC4)c3n2)cc1 [Compound 783, 1-(2-fluoroethyl)-3-(4-{4-morpholin-4-yl-1-[1-(2,2,2-trifluoroethyl)piperidin-4-yl]-1H-pyrazolo[3,4-d]pyrimidin-6-yl}phenyl)urea] | 1120 | 60 | 390 |  | 
CCNC(=NC#N)Nc1ccc(-c2nc(N3CCOCC3)c3cnn(C4CCN(Cc5cccnc5)CC4)c3n2)cc1 [Example 408, 2-cyano-1-ethyl-3-(4-{4-morpholin-4-yl-1-[1-(pyridin-3-ylmethyl)piperidin-4-yl]-1H-pyrazolo[3,4-d]pyrimidin-6-yl}phenyl)guanidine] | 916 | 890 | 3200 |  | 
C/C=C/C(=O)N1CCC(n2ncc3c(N4CCOCC4)nc(-c4ccc(NC(=O)NC)cc4)nc32)CC1 [Compound 756, 1-[4-(1-{1-[(2E)-but-2-enoyl]piperidin-4-yl}-4-morpholin-4-yl-1H-pyrazolo[3,4-d]pyrimidin-6-yl)phenyl]-3-methylurea] | 174 | 500 | 500 |  | 
COC(=O)N1CCC(n2ncc3c(N4CCOC(C)C4)nc(-c4ccc(NC(=O)NCCO)cc4)nc32)CC1 (stereo not drawn) [Compound 845, methyl 4-[6-(4-{[(2-hydroxyethyl)carbamoyl]amino}phenyl)-4-(2-methylmorpholin-4-yl)-1H-pyrazolo[3,4-d]pyrimidin-1-yl]piperidine-1-carboxylate] | 402 | 1100 | 1600 |  | 
CNC(=O)Nc1ccc(-c2nc(N3CCOCC3)c3cnn(C4CCN(Cc5ccc(Br)nc5)CC4)c3n2)cc1 [Compound 634, 1-[4-(1-{1-[(6-bromopyridin-3-yl)methyl]piperidin-4-yl}-4-morpholin-4-yl-1H-pyrazolo[3,4-d]pyrimidin-6-yl)phenyl]-3-methylurea] | 30 |  |  | 27 | 80
COC(=O)N1CCC(n2ncc3c(N4CCOCC4)nc(-c4ccc(NC(=O)OCCO)cc4)nc32)CC1 [Compound 901, methyl 4-[6-(4-{[(2-hydroxyethoxy)carbonyl]amino}phenyl)-4-morpholin-4-yl-1H-pyrazolo[3,4-d]pyrimidin-1-yl]piperidine-1-carboxylate] | 557 | 30 | 280 |  | 
Nc1ccc(-c2nc(N3CCOCC3)c3cnn(C4CCN(Cc5ccccc5)CC4)c3n2)cc1F [Compound 594, 4-[1-(1-benzylpiperidin-4-yl)-4-morpholin-4-yl-1H-pyrazolo[3,4-d]pyrimidin-6-yl]-2-fluoroaniline] | 1650 | 2000 | 4000 |  | 
OCCN1CCC(n2ncc3c(N4CCOCC4)nc(-c4ccc5[nH]ccc5c4)nc32)CC1 [Compound 496, 2-{4-[6-(1H-indol-5-yl)-4-morpholin-4-yl-1H-pyrazolo[3,4-d]pyrimidin-1-yl]piperidin-1-yl}ethanol] | 3990 | 1800 | 3000 |  | 
COc1ccc(CN2CCC(n3ncc4c(N5CCOCC5)nc(-c5cccc(O)c5)nc43)CC2)cc1O [Example 20] | 21 | 130 | 700 |  | 
CC(C)(C)C(=O)Nc1ccc(-c2nc(N3CCOCC3)c3cnn(C4CCN(Cc5ccccc5)CC4)c3n2)cc1 [Compound 187] | 7770 | 35000 | 40000 |  | 
CNC(=O)Nc1ccc(-c2nc(N3CCOCC3)c3cnn(C4CCN(C(=O)c5ccc(C#N)cc5)CC4)c3n2)cc1 [Example 368, 1-(4-{1-[1-(4-cyanobenzoyl)piperidin-4-yl]-4-morpholin-4-yl-1H-pyrazolo[3,4-d]pyrimidin-6-yl}phenyl)-3-methylurea] | 89 | 150 | 200 |  | 
NCCC(=O)Nc1ccc(-c2nc(N3CCOCC3)c3cn[nH]c3n2)cc1 [Compound 283] | 203 | 1500 | 13000 |  | 
CNC(=O)Nc1ccc(-c2nc(N3CCOCC3)c3cnn(C4CCN(Cc5ccccc5Cl)CC4)c3n2)cc1 [Compound 641, 1-(4-{1-[1-(2-chlorobenzyl)piperidin-4-yl]-4-morpholin-4-yl-1H-pyrazolo[3,4-d]pyrimidin-6-yl}phenyl)-3-methylurea] | 35 |  |  | 38 | 180
O=C(Nc1ccc(-c2nc(N3CCOCC3)c3cnn(C4CCN(CC(F)(F)F)CC4)c3n2)cc1)OCCO [Compound 923, 2-hydroxyethyl (4-{4-morpholin-4-yl-1-[1-(2,2,2-trifluoroethyl)piperidin-4-yl]-1H-pyrazolo[3,4-d]pyrimidin-6-yl}phenyl)carbamate] | 737 | 110 | 1200 |  | 
CNC(=O)Nc1ccc(-c2nc(N3CCOCC3)c3cnn(C4CCN(Cc5cccc(C)c5)CC4)c3n2)cc1 [Compound 674, 1-methyl-3-(4-{1-[1-(3-methylbenzyl)piperidin-4-yl]-4-morpholin-4-yl-1H-pyrazolo[3,4-d]pyrimidin-6-yl}phenyl)urea] | 42 |  |  | 52 | 190
COC(=O)Nc1ccc(-c2nc(N3CCOCC3)c3cnn(C4CCN(C(=O)c5ccccc5Cl)CC4)c3n2)cc1 [Example 444, methyl (4-{1-[1-(2-chlorobenzoyl)piperidin-4-yl]-4-morpholin-4-yl-1H-pyrazolo[3,4-d]pyrimidin-6-yl}phenyl)carbamate] | 778 | 250 | 800 |  | 
COC(=O)Nc1ccc(-c2nc(N3CCOCC3)c3cnn(C4CCN(C(=O)OC(C)(C)C)CC4)c3n2)cc1 [Compound 772, tert-butyl 4-(6-{4-[(methoxycarbonyl)amino]phenyl}-4-morpholin-4-yl-1H-pyrazolo[3,4-d]pyrimidin-1-yl)piperidine-1-carboxylate] | 5030 | 1300 | 5500 |  | 
COC(=O)Nc1ccc(-c2nc(N3CCOCC3)c3cnn(C4CCN(CCCCO)CC4)c3n2)cc1 [Compound 744, methyl (4-{1-[1-(4-hydroxybutyl)piperidin-4-yl]-4-morpholin-4-yl-1H-pyrazolo[3,4-d]pyrimidin-6-yl}phenyl)carbamate] | 1050 | 3500 | 10200 |  | 
O=C(Nc1ccccc1)Nc1ccc(-c2nc(N3CCOCC3)c3cnn(C4CCN(C(=O)c5ccccc5)CC4)c3n2)cc1 [Example 378, 1-{4-[1-(1-benzoylpiperidin-4-yl)-4-morpholin-4-yl-1H-pyrazolo[3,4-d]pyrimidin-6-yl]phenyl}-3-phenylurea] | 16 | 27 | 100 |  | 
CNC(=O)Nc1ccc(-c2nc(N3CCOCC3)c3cnn(C4CCC(=O)CC4)c3n2)cc1 [Compound 567, 1-methyl-3-{4-[4-morpholin-4-yl-1-(4-oxocyclohexyl)-1H-pyrazolo[3,4-d]pyrimidin-6-yl]phenyl}urea] | 56 | 27 | 180 |  | 
O=C(Nc1ccc(-c2nc(N3CCOCC3)c3cnn(C4CCN(C(=O)c5cccnc5)CC4)c3n2)cc1)Nc1ccccn1 [Example 345, 1-(4-{4-morpholin-4-yl-1-[1-(pyridin-3-ylcarbonyl)piperidin-4-yl]-1H-pyrazolo[3,4-d]pyrimidin-6-yl}phenyl)-3-pyridin-2-ylurea] | 261 | 95 | 700 |  | 
CNC(=O)Nc1ccc(-c2nc(N3CCOCC3)c3cnn(C4CCN(C(=O)c5ccccc5OC)CC4)c3n2)cc1 [Example 365, 1-(4-{1-[1-(2-methoxybenzoyl)piperidin-4-yl]-4-morpholin-4-yl-1H-pyrazolo[3,4-d]pyrimidin-6-yl}phenyl)-3-methylurea] | 82 | 27 | 300 |  | 
O=C(Nc1ccc(-c2nc(N3CCOCC3)c3cnn(C4CCN(C(=O)c5cccnc5)CC4)c3n2)cc1)Nc1ccsc1 [Example 414, 1-(4-{4-morpholin-4-yl-1-[1-(pyridin-3-ylcarbonyl)piperidin-4-yl]-1H-pyrazolo[3,4-d]pyrimidin-6-yl}phenyl)-3-(3-thienyl)urea] | 18 | 40 | 100 |  | 
CNC(=O)Nc1ccc(-c2nc(N3CCOCC3)c3cnn(C4CCN(CC(N)=O)CC4)c3n2)cc1 [Compound 576, 2-[4-(6-{4-[(methylcarbamoyl)amino]phenyl}-4-morpholin-4-yl-1H-pyrazolo[3,4-d]pyrimidin-1-yl)piperidin-1-yl]acetamide] | 66 | 600 | 1000 |  | 
NNC(=O)Nc1ccc(-c2nc(N3CCOCC3)c3cnn(C4CCN(C(=O)c5cccnc5)CC4)c3n2)cc1 [Example 306, N-(4-{4-morpholin-4-yl-1-[1-(pyridin-3-ylcarbonyl)piperidin-4-yl]-1H-pyrazolo[3,4-d]pyrimidin-6-yl}phenyl)hydrazinecarboxamide] | 398 | 10000 | 14000 |  | 
